Data taken from patent publication US20100273189A1, “NON SEPARATION ASSAYS WITH SELECTIVE SIGNAL INHIBITORS” (BECKMAN COULTER, INC., priority 2009, published 2010).
Read-outs that look alike come from different tables or passages of the source. Each block holds one molecule with its values, some of them ahead of it.

How the values were obtained:
[1] = biological target: T1, biotinylated HRP (Armoracia rusticana, UniProt P00433); assay: Model system for selection of SSIA (M280 btn-BSA-AK1-streptavidin particles + Btn-HRP:HRP); format: biochemical; conditions: for S/S0: Btn-HRP 0 ng/mL vs 0; for S/S0 / S1/S0 / S2/S0 / S3/S0 / S4/S0 / effect in the model system / utility as SSIA: SSIA 100 μM; for B-HRP0 light intensity: Btn-HRP 0 ng/mL; for B-HRP0 light intensity / B-HRP1 light intensity / B-HRP10 light intensity / B-HRP100 light intensity / B-HRP250 light intensity: total HRP 500 ng/mL, SSIA final 100 μM; for S1/S0: Btn-HRP 1 ng/mL vs 0; for B-HRP1 light intensity: Btn-HRP 1 ng/mL; for S2/S0: Btn-HRP 10 ng/mL vs 0; for B-HRP10 light intensity: Btn-HRP 10 ng/mL; for S3/S0: Btn-HRP 100 ng/mL vs 0; for B-HRP100 light intensity: Btn-HRP 100 ng/mL; for S4/S0: Btn-HRP 250 ng/mL vs 0; for B-HRP250 light intensity: Btn-HRP 250 ng/mL; for effect in the model system / utility as SSIA: conclusion in words
T1 construct: purchased Roche Diagnostics, Indianapolis, Ind., USA
T1 sequence (P00433 31-338 limits assumed): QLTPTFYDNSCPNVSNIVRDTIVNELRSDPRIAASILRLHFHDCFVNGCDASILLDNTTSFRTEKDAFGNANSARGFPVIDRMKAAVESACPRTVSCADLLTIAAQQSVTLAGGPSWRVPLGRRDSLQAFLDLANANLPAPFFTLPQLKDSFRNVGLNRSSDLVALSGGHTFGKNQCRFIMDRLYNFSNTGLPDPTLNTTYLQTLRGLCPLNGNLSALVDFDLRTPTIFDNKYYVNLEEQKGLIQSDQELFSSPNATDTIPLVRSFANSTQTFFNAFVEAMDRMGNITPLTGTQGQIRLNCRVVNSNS
Procedure: The model system uses a microparticle conjugated to BSA (bovine serum albumin) labeled with a […] and acridan ketenedithioacetal chemiluminescent label (AK1) as the chemiluminescent-labeled sbp, and biotinylated HRP as the activator-labeled specific binding pair. In the model system, varying amounts of Btn-HRP is added to the chemiluminescent-labeled specific binding pair at 0, 1, 10, 100 and 250 ng/mL. Additional unlabeled HRP is added to reach a total HRP of concentration of 500 ng/mL in each reaction mixture. The unlabeled HRP in combination with the activator-labeled sbp was provided to the chemiluminescent-labeled sbp microparticles to emulate sample. A compound for assessment as an SSIA was also added. This reaction mixture of the model system is then triggered by addition of trigger solution in a manner of assays of the present disclosure.
To prepare the chemiluminescent-labeled sbp on microparticles, Bovine Serum Albumin (BSA) was biotinylated with 4× molar excess of biotin-LC-sulfoNHS (Pierce Biotechnology Inc., Rockford, Ill., USA). Unbound reactants were removed via desalting or dialysis. The biotin-BSA was then reacted with a 5× molar excess of acridan ketenedithioacetal AK1 in 20 mM sodium phosphate pH 7.2: DMSO 75:25, v/v) followed by desalting in the same buffer. The dual labeled (biotin and AK1) BSA was then coupled with tosyl activated M-280 microparticles (Invitrogen Corporation, Carlsbad, Calif., USA) in a 0.1 M borate buffer pH 9.5 at a concentration of ca. 20 μg labeled BSA per mg of microparticles for 16-24 h at 40° C. After coupling the microparticles were stripped for 1 h at 40° C. with 0.2 M TRIS base, 2% SDS, pH ˜11. The stripping process was repeated one additional time. Microparticles were then suspended in a 0.1% BSA/TRIS buffered saline (BSA/TBS) buffer and streptavidin (SA) was added at approximately 15 μg SA per mg microparticles. Streptavidin was mixed with the microparticles for 45-50 min at room temperature. The microparticles were then washed three times and suspended in the same BSA/TBS.
HRP, (Roche Diagnostics, Indianapolis, Ind., USA) was biotinylated with 4× molar excess of biotin-LC-sulfoNHS (Pierce Biotechnology Inc., Rockford, Ill., USA). Unbound reactants were removed via desalting or dialysis.
Each SSIA compound for assessment was dissolved in Buffer II at a concentration at least 10× of final concentration of the reaction mixture (after the addition of the trigger solution)
Paramagnetic particles (PMP): (M280)-(btn-BSA-AK)-(Streptavidin);
Sample Emulator: B-HRP:HRP; 500 ng/mL total with titration of B-HRP:HRP at Total HRP concentration of 500 ng/mL, with Btn-HRP variations: 0, 1, 10, 100 and 250 ng/mL.
SSIA: According to tables below in BUFFER II targeted to give a final concentration of 100 μM.
Trigger solution A is defined above.
5 μl of 1 mg/ml of dual-labeled (biotin and AK1) BSA M280 particles were mixed with 45 μl of working concentration SSIA in Buffer II. The assay volume brought to […] by adding 15 μl of Buffer II. 15 μl of sample containing Btn-HRP:HRP at different ratios (The amount of biotinylated-HRP varied from 0, 1, 10, 100 and 250 ng/mL) was added. The reaction mixture was incubated for 30 min at 37° C., then 100 μL of trigger solution was added and the light intensity recorded. Total volume of reaction mixture, including trigger solution was […] with a final concentration of 100 μM of SSIA.

[2] = tested on: PSA; assay: Screening SSIA by homogeneous PSA immunoassay; format: biochemical
Procedure: This example presents one method used for testing of candidate compounds for functionality as SSIA in assays of the present disclosure. Testing was conducted in a model screening immunoassay of the protein PSA. Mouse anti-PSA tests were run using a 96-well microtiter plate format. […] The plate was incubated at 37° C. for 10 minutes. A 5 μL aliquot of the test compound (various concentrations) was added to each well. Chemiluminescence was triggered by the addition of 100 μL of a solution of trigger solution A. The chemiluminescent flash was integrated for 5 seconds after the addition of the trigger solution using a Luminoskan Asent® plate luminometer, (Thermo Fischer Scientific, Inc., Waltham, Mass.).
It is desirable that the improvement factor be at least 2 (S5/S0≧ about 20-30) and more desirable that improvement factor be at least 5 (S5/S0≧ about 50), yet more desirable that S5/S0 be ≧100 in the present screen.

[3] = tested on: GM-CSF
Procedure: The term “GM-CSF” refers to granulocyte macrophage […], a protein necessary for the survival, proliferation and differentiation of hematopoietic progenitor cells, having human gene map locus 5q31.1. A variety of antibodies to GM-CSF are commercially available.
Heterogeneous phase assays directed to GM-CSF were conducted using a LodeStars PMP labeled with AK4 and biotin/streptavidin (AK-PMP-SA) as described in Example 3, an antibody-biotin conjugate and an antibody-HRP conjugate binding to GM-CSF. The antibody-HRP conjugate, (antiGM-CSF-HRP) was purchased from Antigenix.
The antibody-biotin (antiGM-CSF-biotin) conjugate was synthesized by adding a 25-fold molar excess (9.28 μg) of sulfo NHS-biotin (Pierce), dissolved in DMF (1 mg/mL), to 0.1 mg of antibody (Antigenix) in 0.1 mL of 0.1 M sodium borate pH 8.25. After a 60 min incubation at ambient temperature, the reaction was left to incubate overnight at 4° C. The biotinylated antibody was purified over a Sephadex G-25 column (GE Healthcare), equilibrated in PBS, pH 7.4, following the manufacturers instructions.
In order to conduct the heterogeneous assay, 30 μL of an antiGM-CSF-Biotin conjugate solution (0.75 μg/mL, 22.5 ng), 30 μL of calibrator solution having GM-CSF in the range 0-30,000 pg/mL, 30 μL of antiGM-CSF-HRP conjugate (2.25 μg/mL, 67 ng), and 30 μL of AK-streptavidin magnetic particle solution (10 μg of particles) were pipetted into the wells of a white microtiter plate. The plate was incubated for 60 minutes at room temperature. 5 μL of a 2-aminophenol solution (11 mM, 55 nmoles) was added as SSIA. The plate was placed into an injection plate luminometer. 100 μL of trigger solution A was added by the luminometer and the chemiluminescent signal was read for 5 seconds.

[4] = PSA 129 ng/mL (S5) vs zero, test compound final conc. 122 uM
[5] = 2-aminophenol as SSIA, GM-CSF 0 pg/mL
[6] = 2-aminophenol as SSIA, GM-CSF 1 pg/mL
[7] = 2-aminophenol as SSIA, GM-CSF 3 pg/mL
[8] = 2-aminophenol as SSIA, GM-CSF 5 pg/mL
[9] = 2-aminophenol as SSIA, GM-CSF 10 pg/mL
[10] = 2-aminophenol as SSIA, GM-CSF 100 pg/mL
[11] = 2-aminophenol as SSIA, GM-CSF 1000 pg/mL
[12] = 2-aminophenol as SSIA, GM-CSF 10000 pg/mL
[13] = PSA 129 ng/mL (S5) vs zero, test compound final conc. 0.122 mM
[14] = PSA 129 ng/mL (S5) vs zero, test compound final conc. 0.244 mM

- S/S0 [1]: 1
- B-HRP0 light intensity [1]: 26,977
- S1/S0 [1]: 2.1
- B-HRP1 light intensity [1]: 55,719
- S2/S0 [1]: 92
- B-HRP10 light intensity [1]: 2,480,764
- S3/S0 [1]: 323.7
- B-HRP100 light intensity [1]: 8,733,068
- S4/S0 [1]: 369.4
- B-HRP250 light intensity [1]: 9,965,235
- effect in the model system / utility as SSIA [1]: no effect
SMILES: N[C@@H](CCC(=O)N[C@@H](CS)C(=O)NCC(=O)O)C(=O)O [Glutathione]
- S5/S0 [2, 4]: 77

SMILES: Nc1ccccc1O [2-aminophenol]
- S/S0 [1]: 1
- B-HRP0 light intensity [1]: 65
- S1/S0 [1]: 5.5
- B-HRP1 light intensity [1]: 356
- S2/S0 [1]: 132.8
- B-HRP10 light intensity [1]: 8,632
- S3/S0 [1]: 32195.4
- B-HRP100 light intensity [1]: 2,092,703
- S4/S0 [1]: 61672.1
- B-HRP250 light intensity [1]: 4,008,689
- effect in the model system / utility as SSIA [1]: demonstrating utility as SSIA
- Mean RLU ([3]; 2-aminophenol 55 nmoles as SSIA, GM-CSF 30000 pg/mL): 2180 RLU
- Mean RLU [3, 5]: 0.7805 RLU
- S/S0 [3, 5]: 1.000
- Mean RLU [3, 6]: 0.8045 RLU
- S/S0 [3, 6]: 1.030
- Mean RLU [3, 7]: 0.8865 RLU
- S/S0 [3, 7]: 1.135
- Mean RLU [3, 8]: 0.9205 RLU
- S/S0 [3, 8]: 1.179
- Mean RLU [3, 9]: 1.284 RLU
- S/S0 [3, 9]: 1.645
- Mean RLU [3, 10]: 5.2805 RLU
- S/S0 [3, 10]: 6.765
- Mean RLU [3, 11]: 47.89 RLU
- S/S0 [3, 11]: 61.358
- Mean RLU [3, 12]: 580.6 RLU
- S/S0 [3, 12]: 743.882
- S/S0 ([3]; 2-aminophenol as SSIA, GM-CSF 30000 pg/mL): 2793.081

SMILES: COC1=C(O)C(=O)O[C@@H]1[C@@H](O)CO
- S5/S0 [2, 4]: 16

SMILES: O=C(O)/C=C/c1ccc(O)c(O)c1
- S5/S0 [2, 13]: 116

SMILES: NCCNC(=O)c1ccc(NN)cc1
- S5/S0 ([2]; PSA 129 ng/mL (S5) vs zero, test compound final conc. 1.22 mM): 138

SMILES: Oc1ccc(O)c(Br)c1
- S5/S0 [2, 13]: 570

SMILES: O=C1C(O)=C(Cl)C(=O)C(O)=C1Cl
- S5/S0 ([2]; PSA 129 ng/mL (S5) vs zero, test compound final conc. 0.031 mM): 7

SMILES: Nc1ccccc1O [drawing 47]
- S5/S0 [2, 13]: 649

SMILES: O=C1O[C@H]([C@@H](O)CO)C(O)=C1O [drawing 64]
- S5/S0 [2, 4]: 10.3

SMILES: O=c1c(O)c(-c2ccccc2)oc2ccc(O)cc12
- S5/S0 [2, 13]: 9

SMILES: O=c1ccc2cc(O)c(O)cc2o1
- S5/S0 [2, 13]: 105

SMILES: c1ccc2c(c1)Nc1ccccc1O2
- S5/S0 [2, 13]: 605

SMILES: Nc1ccc(C(=O)O)cc1O [drawing 79]
- S5/S0 [2, 13]: 153

SMILES: Oc1cccnc1O
- S5/S0 [2, 13]: 41

SMILES: O=C1O[C@H]([C@H](O)CO)C(O)=C1O
- S5/S0 [2, 4]: 10.3

SMILES: O=S(=O)([O-])CCCN1c2ccccc2Sc2ccccc21.[Na+]
- S5/S0 [2, 14]: 50

SMILES: Oc1cccc(O)c1O
- S5/S0 [2, 13]: 69

SMILES: O=C1O[C@H]([C@@H](O)CO)C(O)=C1O [drawing 72]
- S5/S0 [2, 13]: 423

SMILES: OCCO [Ethylene glycol]
- S5/S0 [2]: 14

SMILES: Oc1c(F)c(F)c(O)c(F)c1F
- S5/S0 ([2]; PSA 129 ng/mL (S5) vs zero, test compound final conc. 0.014 mM): 50

SMILES: O=C1O[C@H]([C@@H](O)CO)C([O-])=C1O.[Na+]
- S5/S0 [2, 4]: 9.2

SMILES: Nc1cccc(Cl)c1O
- S5/S0 [2, 14]: 300

SMILES: Cc1cc(-c2cc(C)c(N)c(C)c2)cc(C)c1N [TMB]
- S5/S0 ([2]; PSA 129 ng/mL (S5) vs zero, test compound final conc. 61 uM): 20

SMILES: Nc1cc(Cl)ccc1O
- S5/S0 [2, 14]: 205

SMILES: NNC(=O)c1ccccc1O
- S5/S0 ([2]; PSA 129 ng/mL (S5) vs zero, test compound final conc. 0.061 mM): 23

SMILES: Nc1ccc2ccccc2c1O
- S5/S0 [2, 14]: 109

SMILES: Cc1ccc(O)c(O)c1
- S5/S0 [2, 13]: 142

SMILES: O=S([O-])[O-].[Na+].[Na+] [Na2SO3]
- S5/S0 ([2]; PSA 129 ng/mL (S5) vs zero, test compound final conc. 15 uM): 59
